According to patent publication US20250332173A1, “COMPOUNDS AND METHODS FOR MODULATING NUCLEIC ACID SPLICING” (REMIX THERAPEUTICS INC., priority 2021, published 2025):
Where two headings read alike, the source gives them in different places.

Columns and labels:
HTT mRNA = test: RT-qPCR splicing assay, HTT canonical junction (CJ) and alternative junction (AJ) mRNA; format: cell-based, human; settings: Homo sapiens; for AC50: increase in HTT alternative junction (AJ) mRNA, read-out: HTT AJ AC50
How it was run: (§1)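 Read-out is one-step RT-qPCR on cell lysates detecting the exon-exon junction of each isoform, normalized to a housekeeping gene (PPIA in A673, GAPDH or GUSB in K562).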

MYB mRNA = test: RT-qPCR splicing assay, MYB canonical junction (CJ) and alternative junction (AJ) mRNA; format: cell-based, human; settings: Homo sapiens; for AC50: increase in MYB alternative junction (AJ) mRNA, read-out: MYB AJ AC50
How it was run: as §1

SMN2 mRNA = test: RT-qPCR splicing assay, SMN2 canonical junction (CJ) mRNA; format: cell-based, human; settings: Homo sapiens; canonical junction qPCR panel, Table 5; read-out: SMN2 (decrease in CJ mRNA levels, IC50)
How it was run: (§2)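 A673 cells (DMEM/10% FBS) or K562 cells (IMDM/10% FBS) were treated 24 h at 37° C. with 11-point 3-fold dilutions (top 10 uM, ≤0.25% DMSO). Canonical-junction mRNA was quantified in lysates by RT-qPCR, normalized to GAPDH, GUSB or PPIA.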

Target C = test: RT-qPCR splicing assay panel, Target C canonical junction (CJ) mRNA; format: cell-based, human; settings: Homo sapiens; canonical junction qPCR panel, Table 5; read-out: Target C (decrease in CJ mRNA levels, IC50)
How it was run: as §2

[1] = test system: K562 (human chronic myelogenous leukemia) cells; test: Cell Titer Glo 2.0 cell viability assay; format: cell-based; settings: K562 cells, 72 hours, Cell Titer Glo 2.0, read-out: K562 GI50
[2] = decrease in HTT canonical junction (CJ) mRNA, RT-qPCR, read-out: HTT CJ IC50
[3] = canonical junction qPCR panel, Table 5, read-out: HTT (decrease in CJ mRNA levels, IC50)
[4] = canonical junction qPCR panel, Table 5, read-out: MYB (decrease in CJ mRNA levels, IC50)
[5] = decrease in MYB canonical junction (CJ) mRNA, RT-qPCR, read-out: MYB CJ IC50

Row | Structure (SMILES) | IC50 (HTT mRNA; [2]) [nM] | IC50 (HTT mRNA; [3]) [nM] | IC50 (MYB mRNA; [4]) [nM] | IC50 (MYB mRNA; [5]) [nM] | IC50 (SMN2 mRNA) [nM] | IC50 (Target C) [nM] | GI50 ([1]; Homo sapiens, K562, 72 h) [nM] | GI50 [1] [nM] | AC50 (HTT mRNA; RT-qPCR) [nM] | AC50 (MYB mRNA; RT-qPCR) [nM]
1 | Cc1cn2nc(-c3ccc4c(=O)n(C56CCC(N)(CC5)C6)ccc4n3)cc(C)c2n1 [Compound 1504, 6-(4-aminonorbornane-1-yl)-2-(2,8-dimethylimidazo[1,2-b]pyridazin-6-yl)-1,6-naphthyridin-5-one] | 1000 to 10000 | 100 to 1000 | < 100 | < 100 | < 100 | 1000 to 10000 | 100 to 1000 |  | 100 to 1000 | < 100
2 | Cc1cn2nc(-c3ccc4c(=O)n([C@@H]5CCNC6(CCC6)C5)ccc4n3)cc(C)c2n1 [Compound 1517] | 100 to 1000 | 100 to 1000 | 100 to 1000 | 100 to 1000 | < 100 | 1000 to 10000 | 1000 to 10000 |  | 100 to 1000 | 100 to 1000
3 | Cc1cn2nc(-c3ccc4c(=O)n([C@H]5CCNC6(CCC6)C5)ccc4n3)cc(C)c2n1 [Compound 1518] | 100 to 1000 | 100 to 1000 | 100 to 1000 | < 100 | < 100 | 100 to 1000 | 100 to 1000 |  | 100 to 1000 | 100 to 1000
4 | Cc1c(O)c(-c2ccc3c(=O)n([C@H]4CCN[C@@H](C)C4)ccc3n2)cc2cn(C)nc12 [Compound 1520, 2-(6-hydroxy-2,7-dimethyl-indazol-5-yl)-6-[(2S,4S)-2-methyl-4-piperidyl]-1,6-naphthyridin-5-one] | 100 to 1000 | < 100 | < 100 | < 100 | < 100 | 100 to 1000 | < 100 |  | < 100 | < 100
5 | Cc1c(O)c(-c2ncc3c(=O)n([C@H]4CC[C@H](N)C4)ccc3n2)cc2cn(C)nc12 [Compound 1521] | 1000 to 10000 | 100 to 1000 | 100 to 1000 | 100 to 1000 | < 100 | 1000 to 10000 |  | 100 to 1000 | 100 to 1000 | 100 to 1000
6 | CNC12CCC(n3ccc4nc(-c5cc6cn(C)nc6c(C)c5O)ccc4c3=O)(CC1)C2 [Compound 1522] | 100 to 1000 | 100 to 1000 | < 100 | < 100 | < 100 | 100 to 1000 | < 100 |  | 100 to 1000 | < 100
7 | CNC12CCC(n3ccc4nc(-c5cc6cn(C)nc6cc5O)ccc4c3=O)(CC1)C2 [Compound 1525] | 1000 to 10000 | 1000 to 10000 | < 100 | < 100 | < 100 | > 10000 | < 100 |  | 1000 to 10000 | < 100
8 | Cc1c(O)c(-c2ccc3c(=O)n(C45CCC(NC(C)C)(CC4)C5)ccc3n2)cc2cn(C)nc12 [Compound 1526] | > 10000 | 1000 to 10000 | < 100 | < 100 | < 100 | > 10000 | 100 to 1000 |  | 1000 to 10000 | < 100

More lines, main results first:

Row | IC50 (HTT mRNA; [2]) [nM] | IC50 (HTT mRNA; [3]) [nM] | IC50 (MYB mRNA; [4]) [nM] | IC50 (MYB mRNA; [5]) [nM] | IC50 (SMN2 mRNA) [nM] | IC50 (Target C) [nM] | GI50 ([1]; Homo sapiens, K562, 72 h) [nM] | GI50 [1] [nM] | Structure (SMILES) | AC50 (HTT mRNA; RT-qPCR) [nM] | AC50 (MYB mRNA; RT-qPCR) [nM]
9 | 1000 to 10000 | 100 to 1000 | 100 to 1000 | 100 to 1000 | < 100 | 1000 to 10000 | 100 to 1000 |  | Cc1cn2cc(-c3ncc4c(=O)n([C@H]5CCNC(C)(C)C5)ccc4n3)cc(F)c2n1 [Compound 1497, 6-[(4S)-2,2-dimethyl-4-piperidyl]-2-(8-fluoro-2-methyl-imidazo[1,2-a]pyridin-6-yl)pyrido[4,3-d]pyrimidin-5-one] | 100 to 1000 | 100 to 1000
10 | 1000 to 10000 | 1000 to 10000 | 100 to 1000 | < 100 | < 100 | 1000 to 10000 | 100 to 1000 |  | Cc1cn2cc(-c3ncc4c(=O)n([C@@H]5CCN[C@@H](C)C5)ccc4n3)cc(F)c2n1 [Compound 1498, 2-(8-fluoro-2-methyl-imidazo[1,2-a]pyridin-6-yl)-6-[(2S,4R)-2-methyl-4-piperidyl]pyrido[4,3-d]pyrimidin-5-one] | 1000 to 10000 | 100 to 1000
11 | < 100 | < 100 | < 100 | < 100 | < 100 | 100 to 1000 | 100 to 1000 |  | Cc1cn2nc(-c3ccc4c(=O)n(C5CCNCC5)ccc4n3)cc(C)c2n1 [Compound 1499, 2-(2,8-dimethylimidazo[1,2-b]pyridazin-6-yl)-6-(4-piperidyl)-1,6-naphthyridin-5-one] | < 100 | < 100
12 | 100 to 1000 | 100 to 1000 | < 100 | < 100 | < 100 | 100 to 1000 | 100 to 1000 |  | Cc1cn2cc(-c3ncc4c(=O)n([C@H]5CCN[C@@H](C)C5)ccc4n3)cc(F)c2n1 [Compound 1500, 2-(8-fluoro-2-methyl-imidazo[1,2-a]pyridin-6-yl)-6-[(2S,4S)-2-methyl-4-piperidyl]pyrido[4,3-d]pyrimidin-5-one] | 100 to 1000 | < 100
13 | 100 to 1000 | 100 to 1000 | < 100 | < 100 | < 100 | 100 to 1000 | 100 to 1000 |  | Cc1cn2cc(-c3nc(C)c4c(=O)n([C@H]5CCN[C@@H](C)C5)ccc4n3)cc(F)c2n1 [Compound 1501, 2-(8-fluoro-2-methyl-imidazo[1,2-a]pyridin-6-yl)-4-methyl-6-[(2S,4S)-2-methyl-4-piperidyl]pyrido[4,3-d]pyrimidin-5-one] | 100 to 1000 | < 100
14 | 1000 to 10000 | 1000 to 10000 | 100 to 1000 | 100 to 1000 | < 100 | 1000 to 10000 | 100 to 1000 |  | Cc1cn2cc(-c3ccc4c(=O)n(C5C[C@H](C)N[C@@H](C)C5)ccc4n3)cc(F)c2n1 (stereo partly drawn) [Compound 1502, 6-[(2S,6S)-2,6-dimethyl-4-piperidyl]-2-(8-fluoro-2-methyl-imidazo[1,2-a]pyridin-6-yl)-1,6-naphthyridin-5-one] | 1000 to 10000 | 100 to 1000
15 | 100 to 1000 | 100 to 1000 | 100 to 1000 | < 100 | < 100 | 100 to 1000 | 100 to 1000 |  | C[C@H]1C[C@@H](n2ccc3nc(-c4cc(F)c5nn(C)cc5c4)ncc3c2=O)CCN1 [Compound 1503, 2-(7-fluoro-2-methyl-indazol-5-yl)-6-[(2S,4S)-2-methyl-4-piperidyl]pyrido[4,3-d]pyrimidin-5-one] | 100 to 1000 | 100 to 1000
16 | 1000 to 10000 | 100 to 1000 | 100 to 1000 | < 100 | < 100 | 1000 to 10000 | 100 to 1000 |  | Cc1cn2cc(-c3nc(C)c4c(=O)n(C5C[C@H](C)N[C@@H](C)C5)ccc4n3)cc(F)c2n1 (stereo partly drawn) [Compound 1523] | 100 to 1000 | 100 to 1000
17 | 100 to 1000 | 100 to 1000 | 100 to 1000 | < 100 | < 100 | 100 to 1000 | 100 to 1000 |  | Cc1cn2cc(-c3cc(C)c4c(=O)n(C5CCNCC5)ccc4n3)cc(F)c2n1 [Compound 1524, 2-(8-fluoro-2-methyl-imidazo[1,2-a]pyridin-6-yl)-4-methyl-6-(4-piperidyl)-1,6-naphthyridin-5-one] | 100 to 1000 | 100 to 1000
